Reference: patent US8642765B2, “Azaindole-indole coupled derivatives, preparation methods and uses thereof” (priority 2007, dated 2014)
Like-named read-outs stand apart in the source and are kept apart here.

Key:
[1] = Safety profile (stated in the discussion, no method described); conditions: discussion of Example 2; no data shown
phospho-CDK2^Thr160 = experiment: Western blot of phospho-CDK2 in DU145 cells; format: cell-based, human; conditions: DU145, treated for 24 hours, FIG. 3
Text: (§1) Reagents: The tested compounds were the same as example 2. Unless otherwise indicated, other chemical reagents were purchased from Sigma Chemical Company (USA). Polyacrylamide gel used in protein electrophoresis, SDS, electrophoresis buffer, transfer buffer protein, nitrocellulose membrane were purchased from American Bio-Rad Life Science Company. Western blotting detection kits and films were purchased from American GE Company. Phospho-CDK2^Thr160 antibody, endogenous cyclin-dependent inhibitor p27 antibody, CyclinD1 and β-Actin antibody were purchased from American Cell Signaling Inc., DAKO and Santa Cruz Biochemical Technology Company.
(§2) Tumor cells and methods for cell culture were the same as example 2.
(§3) Phospho-Cdc2, p27, and Cyclin D1 were Detected by Western Blot: The human prostate cancer cell lines DU145 at logarithmic growth phase were treated with compounds No. 124 and No. 126 (concentration is shown in FIG. 3) for 24 hours. The cells were harvested and washed. Total cellular proteins were extracted and quantified as described previously^[14]. 50 μg of protein was separated on a SDS-PAGE, electro-transferred to nitrocellulose filters. Western blot were performed using specific antibodies against Phospho-CDK2, endogenous cyclin-dependent inhibitor p27 and CyclinD1, with β-Actin antibody as an internal standard. The result was recorded by ECL films.

DU145 tumor cells = experiment: MTT growth inhibition of DU145 cells, 72 h; format: cell-based, human; conditions: for IC50 / IC90: DU145, 72 h, MTT; for growth inhibitory effects on tumor cells (in words): discussion of the MTT assay, DU145
Experimental: DU145 cells were inoculated in RPM11640 medium containing 10% calf serum, incubated at 37° C., 5% CO2 in CO2 incubator, and passaged every 2-3 days. In this experiment, cells were grown in logarithmic growth phase.
In the experiment, the cells at logarithmic growth phase were formulated into suspension, and the viability by trypan blue staining was more than 98%. The suspension was divided into several groups: 1 as blank control group (cell suspension); and 2 as experimental groups (cell suspension plus drugs).
(§4) The drugs were formulated into a stock solution in DMSO, and the concentration of the stock solution was 20 mmol (used within 4 hours). In the experiment, the work solution of the drugs was diluted with RPM11640 medium containing 10% calf serum under aseptic condition, to a final concentration of 80 μM. The drug concentrations were increased by 2 times (1.25-20 μM).
(§5) The DU145 cell in logarithmic growth phase were selected, centrifuged, counted, and formulated into a cell suspension (2.5×10^4/ml) with RPM11640 medium containing 10% calf serum. The cell suspension were inoculated into 96-well plates at a density of 5000 cells/200 μl per well, incubated for 24 hours at 37° C., 5% CO2. According to the above concentration of the drug, the cells were inoculated to 6 groups (including one control group), with 8 wells per group. After incubating for 72 hours, the viability of cells was measured by MTT assay. The absorbance value (A) was measured with detection wavelength at 540 nm, reference wavelength at 630 nm. The inhibitory rate (I) was calculated by the following equation, where T was the absorbance value of the experimental groups, and C was the absorbance value of the blank control group: I=(1−T/C)×100%
(§6) The regression equation was calculated by the concentration-inhibitory rate curve, to obtain 50% and 90% inhibition concentration (IC50 and IC90, μM).

[2] = test system: endogenous cyclin-dependent inhibitor p27; experiment: Western blot of p27 in DU145 cells; format: cell-based, human; conditions: DU145, treated for 24 hours, FIG. 3
Text: as §1, §2, §3

Cyclin D1 = experiment: Western blot of Cyclin D1 in DU145 cells; format: cell-based, human; conditions: DU145, treated for 24 hours, FIG. 3
Text: as §1, §2, §3

[3] = Solubility assay in solvents; format: physicochemical; conditions: for solubility in Acetone / solubility in deionized water / solubility in ethanol / solubility in methanol / solubility in petroleum ether (boiling range: 60~90° C.) / solubility in trichlormethane: 5 mg in 2 ml solvent, room temperature (20° C.); for change of lipid solubility / change of water solubility: 129 relative to 91, 91 relative to indirubin
Experimental: Testing Methods: 5 mg of the compound no. 129 and 91 were respectively added into 2 ml solvent at room temperature (20° C.), and stirred to dissolve.

[4] = Dissolution of solid dispersion preparations; format: physicochemical; conditions: 45 minute, 100 ml of 1% sodium dodecyl sulfate solution, 37±0.5° C., 100 r/min
Experimental: Instruments: RCZ-5A capacity medicament dissolve and infiltrate apparatus is made by Tianjin University Precision Instruments Factory. UV1900 UV-Vis spectrophotometer is made by Shanghai Yayan Electronic Science And Technology Co., Ltd.
Dissolution determination methods: According to the third method of XC dissolution assay stated in the appendix of Chinese Pharmacopeia (Edition 2005), the rotation speed was 100 r/min, the temperature was 37±0.5° C., and the dissolution medium was 100 ml of 1% sodium dodecyl sulfate solution degassed ultrasonically. A specimen was withdrawn at 45 minute and immediately filtered through a 0.8 μm water membrane. The filtrate was quantitatively diluted. The absorbance was measured by UV1900, and the dissolution percentage was calculated.

[5] = test system: human leukemia cell line CEM; experiment: MTT growth inhibition of CEM cells; format: cell-based; conditions: read-out: IC50 (μM) Tumor cells CEM
Experimental: as §4, §5, §6
(§7) 1. Tumor Cells: human hepatoma cell lines 7701 QGY and HepG-2, human lung adenocarcinoma cell line A549, human chronic myelocytic leukemia cell line K562, human leukemia cell line CEM and mouse melanoma cell line K111.
(§8) 2. Using the methods described in example 2, the biological activity of a portion of newly synthesized 5- or 7-azaindirubin derivatives and 5- or 7-azaisoindigo derivatives (20 compounds) for inhibiting various tumor cells growth were determined.

[6] = test system: human hepatoma cell line 7701 QGY; experiment: MTT growth inhibition of 7701 QGY cells; format: cell-based; conditions: read-out: IC50 (μM) Tumor cells 7701 QGY
Experimental: as §4, §5, §6, §7, §8

[7] = test system: human hepatoma cell line HepG-2; experiment: MTT growth inhibition of HepG-2 cells; format: cell-based; conditions: HepG-2, MTT, read-out: IC50 (μM) Tumor cells HepG-2
Experimental: as §4, §5, §6, §7, §8

[8] = test system: mouse melanoma cell line K111; experiment: MTT growth inhibition of K111 cells; format: cell-based; conditions: Klll, read-out: IC50 (μM) Tumor cells Klll
Experimental: as §4, §5, §6, §7, §8

[9] = test system: human lung adenocarcinoma cell line A549; experiment: MTT growth inhibition of A549 cells; format: cell-based; conditions: read-out: IC50 (μM) Tumor cells A549
Experimental: as §4, §5, §6, §7, §8

[10] = test system: human chronic myelocytic leukemia cell line K562; experiment: MTT growth inhibition of K562 cells; format: cell-based; conditions: read-out: IC50 (μM) Tumor cells K562
Experimental: as §4, §5, §6, §7, §8

[11] = Homo sapiens, DU-145, 72 h, Table 5
[12] = Homo sapiens, DU-145, 72 h, Table 6

Row | IC50 (DU145 tumor cells; Table 6) [µM] | IC90 (DU145 tumor cells; Table 6) [µM] | IC50 [5] [µM] | IC50 [6] [µM] | IC50 [7] [µM] | IC50 [8] [µM] | IC50 [9] [µM] | IC50 [10] [µM] | Structure (SMILES) | other results
1 | 1.8 | 12 | – | – | – | – | – | – | CCCCN1C(=O)C(=C2Nc3ccc(Cl)cc3C2=NO)c2cccnc21 [Compound 124] | safety profile [1]: good safety profile; level of CDK2 activity (phosphorylation) (phospho-CDK2^Thr160): decreased in a dose-dependent manner; growth inhibitory effects on tumor cells (in words) (DU145 tumor cells): relatively significant growth inhibitory effects; expression of endogenous cyclin-dependent inhibitor p27 [2]: significantly increased; protein expression of cyclin D1 (Cyclin D1): significantly decreased
2 | 3.1 | 29 | 11.3 | 14.9 | 16 | 6 | 18.1 | 11.5 | CC(C)N1C(=O)C(=C2Nc3ccc(Br)cc3C2=NO)c2cccnc21 [Compound 121] | safety profile [1]: good safety profile; growth inhibitory effects on tumor cells (in words) (DU145 tumor cells): relatively significant growth inhibitory effects
3 | 9.05 | 19 | 12.7 | 33.1 | 29 | 9.1 | 23.3 | 18.6 | CC(C)N1C(=O)C(=C2C(=O)Nc3ccccc32)c2cccnc21 [Compound 164, 1-isopropyl-7-azaisoindigo] | –
4 | 2.7 | 7.1 | 10.5 | 7.6 | 12.6 | 3.6 | 10 | 7.7 | CN1C(=O)C(=C2Nc3ccccc3C2=NO)c2cccnc21 [Compound 128] | –
5 | 18.5 | 100 | 10.2 | 28 | 18 | 14 | 19.6 | 20.4 | CC(C)N1C(=O)C(=C2Nc3ccc(Cl)cc3C2=O)c2cccnc21 [Compound 106] | –

The remaining lines, values behind:

Row | Structure (SMILES) | IC50 (DU145 tumor cells; Table 6) [µM] | IC90 (DU145 tumor cells; Table 6) [µM] | IC50 [5] [µM] | IC50 [6] [µM] | IC50 [7] [µM] | IC50 [8] [µM] | IC50 [9] [µM] | IC50 [10] [µM] | other results
6 | CC(C)N1C(=O)C(=C2Nc3ccc(Br)cc3C2=NO)c2cnccc21 [Compound 30] | – | – | – | – | – | – | – | – | safety profile [1]: good safety profile; IC50 (DU145 tumor cells; Table 5): 3.3 µM; IC90 (DU145 tumor cells; Table 5): 7 µM; growth inhibitory effects on tumor cells (in words) (DU145 tumor cells): relatively significant growth inhibitory effects
7 | CCN1C(=O)/C(=C2\Nc3ccccc3\C2=N/O)c2ccccc21 [Compound 91, 1-ethyl-indirubin-3′-oxime, reference compound] | – | – | – | – | – | – | – | – | IC50 (DU145 tumor cells; [11]): 4.2 µM; IC90 (DU145 tumor cells; [11]): 21.8 µM; IC50 (DU145 tumor cells; [12]): 4.1 µM; IC90 (DU145 tumor cells; [12]): 22 µM; solubility in Acetone [3]: easily soluble; solubility in deionized water [3]: insoluble; solubility in ethanol [3]: dissoluble; solubility in methanol [3]: slightly soluble; solubility in petroleum ether (boiling range: 60~90° C.) [3]: slightly soluble; solubility in trichlormethane [3]: easily soluble; change of lipid solubility [3]: increased; change of water solubility [3]: decreased
8 | O=C1C(=C2C(=O)N(Cc3ccccc3)c3ccncc32)Nc2ccc(Br)cc21 [Compound 18] | – | – | – | – | – | – | – | – | IC50 (DU145 tumor cells; Table 5): 6.6 µM; IC90 (DU145 tumor cells; Table 5): 23.5 µM; Dissolution percentages (%) [4]: 4%
9 | O=C1C(=C2Nc3ccc(Cl)cc3C2=NO)c2cccnc2N1Cc1ccccc1 [Compound 126] | 7.1 | 19 | 8.1 | 11.2 | 16.3 | 14.2 | 9.6 | 5.1 | level of CDK2 activity (phosphorylation) (phospho-CDK2^Thr160): decreased in a dose-dependent manner; expression of endogenous cyclin-dependent inhibitor p27 [2]: significantly increased; protein expression of cyclin D1 (Cyclin D1): significantly decreased
10 | CN1C(=O)C(=C2Nc3ccc(Cl)cc3C2=O)c2cccnc21 [Compound 102] | 8 | 18 | 7 | 39.5 | 41.5 | 18.2 | 22.8 | 9.5 | –
11 | CCCCN1C(=O)C(=C2C(=O)Nc3ccc(Br)cc32)c2cccnc21 [Compound 170] | 15 | 90 | 8.5 | 28 | 25 | 18.5 | 19.5 | 10.3 | –
12 | CN1C(=O)C(=C2C(=O)Nc3ccc(F)cc32)c2cccnc21 [Compound 154] | 43 | > 100 | 9.8 | 36 | 29.3 | 12 | 12.4 | 19 | –
13 | CNc1cnc2c(c1)C(=C1Nc3ccc(F)cc3C1=O)C(=O)N2Cc1ccccc1 [Compound 111] | 7.4 | 34 | 11 | 28.5 | 17 | 15.1 | 24.3 | 15 | –
14 | CC(=O)OCC1OC(N2C(=O)C(=C3C(=O)Nc4ccccc43)c3cc(C)cnc32)C(OC(C)=O)C1OC(C)=O (stereo not drawn) [Compound 158] | 10.5 | 49 | 12 | 44 | 18 | 8.3 | 22.3 | 5.8 | –
15 | COc1ccc2c(c1)C(=O)C(=C1C(=O)N(C)c3ncc(C)cc31)N2 [Compound 95] | 400 | > 100 | 9 | 23.9 | 50.1 | 15.6 | 35.2 | 8.1 | –
16 | CCN1C(=O)/C(=C2\Nc3ccccc3\C2=N/O)c2cccnc21 [Compound 129] | – | – | – | – | – | – | – | – | IC50 ([5]; Homo sapiens, CCRF-CEM): 7 µM; IC50 ([6]; Homo sapiens): 7.4 µM; IC50 (DU145 tumor cells; [12]): 3.8 µM; IC90 (DU145 tumor cells; [12]): 12 µM; IC50 ([7]; Homo sapiens, HepG2): 13 µM; solubility in Acetone [3]: slightly soluble; solubility in deionized water [3]: slightly soluble; solubility in ethanol [3]: slightly soluble; solubility in methanol [3]: soluble; solubility in petroleum ether (boiling range: 60~90° C.) [3]: insoluble; solubility in trichlormethane [3]: slightly soluble; change of lipid solubility [3]: decreased; change of water solubility [3]: increased; IC50 ([8]; Mus musculus): 4.2 µM; IC50 ([9]; Homo sapiens): 14.1 µM; IC50 ([10]; Homo sapiens): 3.4 µM
